Experimental data as given in patent publication US9980943B2, “Methods of treating muscular dystrophy” (BOARD OF REGENTS OF THE NEVADA SYSTEM OF HIGHER EDUCATION, …, priority 2013, dated 2018).

Experiments:
Format in all cases: cell-based, mouse
[1] = tested on: α7 integrin (LacZ reporter in α7+/LacZ myotubes); experiment: Myotube α7 integrin FDG assay (Burkin assay in myotubes, 96-well); settings: for Burkin Assay in Myotubes, value relative to DMSO: SU9516 analogs, 96-well, N=3-6
[2] = tested on: β-galactosidase in CMV-LacZ C2C12 myotubes; experiment: CMV-LacZ secondary screen in C2C12 myotubes (β-Gal stabilizing assay); settings: for CMV-LACZ in Myotubes, signal relative to DMSO: C2C12 CMV-LacZ myotubes, fold relative to DMSO; for CMV-LACZ in Myotubes, value relative to DMSO: SU9516 analogs, C2C12 CMV-LacZ, N=2
Procedure, shortened: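 Dose-response runs at 0.5–40 μM (0.5, 1, 5, 10, 20, 40 μM; N=2 per point) used a clonal C2C12 line carrying CMV-LacZ. Cells were assayed as myoblasts or as differentiated myotubes, and β-galactosidase levels were read with the FDG fluorogenic substrate.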

[3] = tested on: α7 integrin (LacZ reporter in α7βgal+/− myoblasts); experiment: Myoblast α7+/LacZ integrin FDG assay (Burkin assay in myoblasts, 96-well); settings: 96-well; for Burkin Assay in Myoblasts, signal relative to DMSO: α7+/LacZ myoblasts; for Burkin Assay in Myoblasts, value relative to DMSO: SU9516 analogs, N=3-6
[4] = tested on: β-galactosidase in CMV-LacZ C2C12 myoblasts; experiment: CMV-LacZ secondary screen in C2C12 myoblasts (β-Gal stabilizing assay); settings: for CMV-LACZ in Myoblasts (β-galactosidase activity relative to DMSO): CMV-LacZ C2C12 myoblasts; for CMV-LACZ in Myoblasts, value relative to DMSO: SU9516 analogs, C2C12 CMV-LacZ, N=2
Procedure, shortened: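 A secondary screen identifies compounds that stabilize β-gal independently of the native promoter, using CMV-LacZ C2C12 cells. Curves span 0.5–40 μM at six levels, in duplicate.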

N#C/C(=C/c1ccc(N2CCOCC2)o1)C(=O)Nc1ccccc1 [MLS000689218-01] was tested, and the “Burkin Assay in Myotubes, α7 integrin LacZ reporter signal relative to DMSO” value ([1]; 0.5 uM) was 0.9663, the “Burkin Assay in Myotubes, α7 integrin LacZ reporter signal relative to DMSO” value ([1]; 1 uM) was 1.083 and the “Burkin Assay in Myotubes, α7 integrin LacZ reporter signal relative to DMSO” value ([1]; 5 uM) was 0.97. For the same molecule, the “Burkin Assay in Myotubes, α7 integrin LacZ reporter signal relative to DMSO” value ([1]; 10 uM) was 0.9829, the “Burkin Assay in Myotubes, α7 integrin LacZ reporter signal relative to DMSO” value ([1]; 20 uM) was 1.008 and the “Burkin Assay in Myotubes, α7 integrin LacZ reporter signal relative to DMSO” value ([1]; 40 uM) was 0.9676. For the same molecule, the “CMV-LACZ in Myotubes, signal relative to DMSO” value ([2]; 0.5 uM) was 0.9657, the “CMV-LACZ in Myotubes, signal relative to DMSO” value ([2]; 1 uM) was 0.9514 and the “CMV-LACZ in Myotubes, signal relative to DMSO” value ([2]; 5 uM) was 1.3684. The “CMV-LACZ in Myotubes, signal relative to DMSO” value ([2]; 10 uM) was 1.2135, the “CMV-LACZ in Myotubes, signal relative to DMSO” value ([2]; 20 uM) was 1.4900 and the “CMV-LACZ in Myotubes, signal relative to DMSO” value ([2]; 40 uM) was 1.7990. The “Burkin Assay in Myoblasts, signal relative to DMSO” value ([3]; 0.5 uM) was 1.068, the “Burkin Assay in Myoblasts, signal relative to DMSO” value ([3]; 1 uM) was 1.171 and the “Burkin Assay in Myoblasts, signal relative to DMSO” value ([3]; 5 uM) was 1.132. For the same molecule, the “Burkin Assay in Myoblasts, signal relative to DMSO” value ([3]; 10 uM) was 1.051, the “Burkin Assay in Myoblasts, signal relative to DMSO” value ([3]; 20 uM) was 1.07 and the “Burkin Assay in Myoblasts, signal relative to DMSO” value ([3]; 40 uM) was 1.037. For the same molecule, the “CMV-LACZ in Myoblasts (β-galactosidase activity relative to DMSO)” value ([4]; 0.5 uM) was 1.1977, the “CMV-LACZ in Myoblasts (β-galactosidase activity relative to DMSO)” value ([4]; 1 uM) was 1.2273 and the “CMV-LACZ in Myoblasts (β-galactosidase activity relative to DMSO)” value ([4]; 5 uM) was 0.8689. For the same molecule, the “CMV-LACZ in Myoblasts (β-galactosidase activity relative to DMSO)” value ([4]; 10 uM) was 1.0813, the “CMV-LACZ in Myoblasts (β-galactosidase activity relative to DMSO)” value ([4]; 20 uM) was 1.2835 and the “CMV-LACZ in Myoblasts (β-galactosidase activity relative to DMSO)” value ([4]; 40 uM) was 1.6337.
COc1ccc2c(c1)C(=C(C#N)C#N)C(=O)N2CCc1ccccc1 [MLS000763074-01] was tested, and the “Burkin Assay in Myotubes, value relative to DMSO” value ([1]; 0.5 uM) was 1.0274, the “Burkin Assay in Myotubes, value relative to DMSO” value ([1]; 1 uM) was 1.128 and the “Burkin Assay in Myotubes, value relative to DMSO” value ([1]; 5 uM) was 1.043. For the same molecule, the “Burkin Assay in Myotubes, value relative to DMSO” value ([1]; 10 uM) was 0.907, the “Burkin Assay in Myotubes, value relative to DMSO” value ([1]; 20 uM) was 0.1921 and the “Burkin Assay in Myotubes, value relative to DMSO” value ([1]; 40 uM) was 0.2622. The “CMV-LACZ in Myotubes, value relative to DMSO” value ([2]; 0.5 uM) was 1.0089, the “CMV-LACZ in Myotubes, value relative to DMSO” value ([2]; 1 uM) was 0.8593 and the “CMV-LACZ in Myotubes, value relative to DMSO” value ([2]; 5 uM) was 1.0487. The “CMV-LACZ in Myotubes, value relative to DMSO” value ([2]; 10 uM) was 0.9645, the “CMV-LACZ in Myotubes, value relative to DMSO” value ([2]; 20 uM) was 1.7671 and the “CMV-LACZ in Myotubes, value relative to DMSO” value ([2]; 40 uM) was 1.9682. For the same molecule, the “Burkin Assay in Myoblasts, value relative to DMSO” value ([3]; 0.5 uM) was 1.199, the “Burkin Assay in Myoblasts, value relative to DMSO” value ([3]; 1 uM) was 1.067 and the “Burkin Assay in Myoblasts, value relative to DMSO” value ([3]; 5 uM) was 0.843. For the same molecule, the “Burkin Assay in Myoblasts, value relative to DMSO” value ([3]; 10 uM) was 1.134, the “Burkin Assay in Myoblasts, value relative to DMSO” value ([3]; 20 uM) was 0.6586 and the “Burkin Assay in Myoblasts, value relative to DMSO” value ([3]; 40 uM) was 0.6085. For the same molecule, the “CMV-LACZ in Myoblasts, value relative to DMSO” value ([4]; 0.5 uM) was 0.8431, the “CMV-LACZ in Myoblasts, value relative to DMSO” value ([4]; 1 uM) was 0.8256 and the “CMV-LACZ in Myoblasts, value relative to DMSO” value ([4]; 5 uM) was 1.1447. The “CMV-LACZ in Myoblasts, value relative to DMSO” value ([4]; 10 uM) was 1.1966, the “CMV-LACZ in Myoblasts, value relative to DMSO” value ([4]; 20 uM) was 1.2981 and the “CMV-LACZ in Myoblasts, value relative to DMSO” value ([4]; 40 uM) was 1.6644.
In the case of CC1CC(C)(C)NC(=S)N1CC(=O)N(C)Cc1ccccc1 (stereo not drawn) [MLS000586245-01], the “Burkin Assay in Myotubes, α7 integrin LacZ reporter signal relative to DMSO” value ([1]; 0.5 uM) is reported as 1.003, the “Burkin Assay in Myotubes, α7 integrin LacZ reporter signal relative to DMSO” value ([1]; 1 uM) is reported as 0.9584 and the “Burkin Assay in Myotubes, α7 integrin LacZ reporter signal relative to DMSO” value ([1]; 5 uM) is reported as 1.043. The “Burkin Assay in Myotubes, α7 integrin LacZ reporter signal relative to DMSO” value ([1]; 10 uM) was 1.179, the “Burkin Assay in Myotubes, α7 integrin LacZ reporter signal relative to DMSO” value ([1]; 20 uM) was 0.9426 and the “Burkin Assay in Myotubes, α7 integrin LacZ reporter signal relative to DMSO” value ([1]; 40 uM) was 1.026. The “CMV-LACZ in Myotubes, signal relative to DMSO” value ([2]; 0.5 uM) was 1.0611, the “CMV-LACZ in Myotubes, signal relative to DMSO” value ([2]; 1 uM) was 1.0800 and the “CMV-LACZ in Myotubes, signal relative to DMSO” value ([2]; 5 uM) was 0.9511. For the same molecule, the “CMV-LACZ in Myotubes, signal relative to DMSO” value ([2]; 10 uM) was 1.1338, the “CMV-LACZ in Myotubes, signal relative to DMSO” value ([2]; 20 uM) was 1.2267 and the “CMV-LACZ in Myotubes, signal relative to DMSO” value ([2]; 40 uM) was 1.2656. For the same molecule, the “Burkin Assay in Myoblasts, signal relative to DMSO” value ([3]; 0.5 uM) was 0.9903, the “Burkin Assay in Myoblasts, signal relative to DMSO” value ([3]; 1 uM) was 1.049 and the “Burkin Assay in Myoblasts, signal relative to DMSO” value ([3]; 5 uM) was 1.116. For the same molecule, the “Burkin Assay in Myoblasts, signal relative to DMSO” value ([3]; 10 uM) was 1.244, the “Burkin Assay in Myoblasts, signal relative to DMSO” value ([3]; 20 uM) was 1.033 and the “Burkin Assay in Myoblasts, signal relative to DMSO” value ([3]; 40 uM) was 1.021. The “CMV-LACZ in Myoblasts (β-galactosidase activity relative to DMSO)” value ([4]; 0.5 uM) was 0.9034, the “CMV-LACZ in Myoblasts (β-galactosidase activity relative to DMSO)” value ([4]; 1 uM) was 0.8985 and the “CMV-LACZ in Myoblasts (β-galactosidase activity relative to DMSO)” value ([4]; 5 uM) was 0.9258. The “CMV-LACZ in Myoblasts (β-galactosidase activity relative to DMSO)” value ([4]; 10 uM) was 1.0505, the “CMV-LACZ in Myoblasts (β-galactosidase activity relative to DMSO)” value ([4]; 20 uM) was 0.7726 and the “CMV-LACZ in Myoblasts (β-galactosidase activity relative to DMSO)” value ([4]; 40 uM) was 0.7674.
